Source: ChEMBL document CHEMBL1157501, “Novel fluorinated acridone derivatives. Part 1: synthesis and evaluation as potential anticancer agents” (Bioorg Med Chem Lett, 2008)

Assays:
CCRF-CEM = test: Growth inhibition of human CCRF-CEM cells at 10 uM relative to control; assay type: functional
BT-549 = test: Antiproliferative activity against human BT549 cells after 72 hrs by alamar blue assay; assay type: functional, cell-based; conditions: BT-549, 72 h
786-0 = test: Growth inhibition of human 786-0 cells at 10 uM relative to control; assay type: functional
A549 = test: Growth inhibition of human A549 cells at 10 uM relative to control; assay type: functional
SNB-75 = test: Growth inhibition of human SNB75 cells at 10 uM relative to control; assay type: functional
UACC-257 = test: Growth inhibition of human UACC257 cells at 10 uM relative to control; assay type: functional
Jurkat = test: Antiproliferative activity against human Jurkat cells after 72 hrs by Alamar Blue assay; assay type: functional, cell-based
MCF7 = test: Growth inhibition of human MCF7 cells at 10 uM relative to control; assay type: functional
SK-MEL-28 = test: Growth inhibition of human SK-MEL-28 cells at 10 uM relative to control; assay type: functional
HT-29 = test: Growth inhibition of human HT29 cells at 10 uM relative to control; assay type: functional
CAKI-1 = test: Growth inhibition of human CAKI1 cells at 10 uM relative to control; assay type: functional
HCT-116 = test: Growth inhibition of human HCT116 cells at 10 uM relative to control; assay type: functional
T47D = test: Growth inhibition of human T47D cells at 10 uM relative to control; assay type: functional
SW480 = test: Antiproliferative activity against human SW480 cells after 72 hrs by Alamar Blue assay; assay type: functional, cell-based; conditions: SW480, 72 h
BT-20 = test: Antiproliferative activity against human BT20 cells after 72 hrs by Alamar Blue assay; assay type: functional, cell-based; conditions: BT-20, 72 h
HOP-92 = test: Growth inhibition of human HOP92 cells at 10 uM relative to control; assay type: functional
SF-295 = test: Growth inhibition of human SF295 cells at 10 uM relative to control; assay type: functional
MOLT-4 = test: Growth inhibition of human MOLT4 cells at 10 uM relative to control; assay type: functional
[1] = Growth inhibition of human HL60(TB) cells at 10 uM relative to control; assay type: functional, HL-60(TB); conditions: HL-60

Row | SMILES | inhibition at 10 µM (CCRF-CEM) [%] | IC50 (BT-549) [µM] | inhibition at 10 µM (786-0) [%] | inhibition at 10 µM (A549) [%] | inhibition at 10 µM (SNB-75) [%] | inhibition at 10 µM (UACC-257) [%] | IC50 (Jurkat) [µM] | inhibition at 10 µM (MCF7) [%] | inhibition at 10 µM (SK-MEL-28) [%] | inhibition at 10 µM (HT-29) [%] | inhibition at 10 µM (CAKI-1) [%] | inhibition at 10 µM (HCT-116) [%] | inhibition at 10 µM (T47D) [%] | IC50 (SW480) [µM] | IC50 (BT-20) [µM] | inhibition at 10 µM (HOP-92) [%] | inhibition at 10 µM (SF-295) [%] | inhibition at 10 µM (MOLT-4) [%] | inhibition at 10 µM [1] [%]
1 | O=C1CC(C(F)(F)F)Cc2nc3ccc(Cl)cc3c(-c3ccccc3)c21 (stereo not given) | < 20 | 16.1 | < 20 | 80 | < 20 | 40 | 12.3 | < 20 | < 20 | < 20 | 66 | 25 | < 20 | 28.4 | 22.1 | 37 | 48 |  | 
2 | O=C1CC(C(F)(F)F)Cc2nc3ccccc3c(-c3ccccc3)c21 (stereo not given) | < 20 |  | < 20 | < 20 | < 20 | 77 |  | < 20 | < 20 | < 20 | < 20 | 70 | < 20 |  |  | 70 | < 20 | < 20 | 45
3 | Cc1c2c(nc3ccc(Cl)cc13)CC(C(F)(F)F)CC2=O (stereo not given) |  | 12.1 | < 20 | < 20 | < 20 | < 20 | 5.1 | 95 | < 20 | 43 | < 20 | < 20 | 43 | 15.3 | 6.7 | 58 | < 20 | 95 | < 20
